Patent US20250179083A1, “TRICYCLIC TRIAZOLO COMPOUNDS AS DGK INHIBITORS” (Incyte Corporation, priority 2023, published 2025)

How the values were obtained:
DGKα = biological target: T1, DGKα (Homo sapiens, UniProt P23743); experiment: In vitro DGKα inhibition assay (ADP-Glo); assay type: biochemical; conditions: His-tagged human recombinant DGKα 0.1 nM, 50 μM ATP, 20 μM DLG, 90 minute incubation
T1 construct: His; purchased Signal Chem D21-10BH
Method in brief: (§1)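 His-tagged human DGKα (0.1 nM, 50 μM ATP) or DGKζ (0.4 nM, 30 μM ATP), each with 20 μM DLG lipid substrate, in Tris pH 7.5 buffer with Mg2+, Ca2+, CHAPS.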

DGKζ = biological target: T2, DGKζ (Homo sapiens, UniProt Q13574); experiment: In vitro DGKζ inhibition assay (ADP-Glo); assay type: biochemical; conditions: His-tagged human recombinant DGKζ 0.4 nM, 30 μM ATP, 20 μM DLG, 90 minute incubation
T2 construct: His; purchased Signal Chem D30-10H
T2 sequence (Q13574 whole entry): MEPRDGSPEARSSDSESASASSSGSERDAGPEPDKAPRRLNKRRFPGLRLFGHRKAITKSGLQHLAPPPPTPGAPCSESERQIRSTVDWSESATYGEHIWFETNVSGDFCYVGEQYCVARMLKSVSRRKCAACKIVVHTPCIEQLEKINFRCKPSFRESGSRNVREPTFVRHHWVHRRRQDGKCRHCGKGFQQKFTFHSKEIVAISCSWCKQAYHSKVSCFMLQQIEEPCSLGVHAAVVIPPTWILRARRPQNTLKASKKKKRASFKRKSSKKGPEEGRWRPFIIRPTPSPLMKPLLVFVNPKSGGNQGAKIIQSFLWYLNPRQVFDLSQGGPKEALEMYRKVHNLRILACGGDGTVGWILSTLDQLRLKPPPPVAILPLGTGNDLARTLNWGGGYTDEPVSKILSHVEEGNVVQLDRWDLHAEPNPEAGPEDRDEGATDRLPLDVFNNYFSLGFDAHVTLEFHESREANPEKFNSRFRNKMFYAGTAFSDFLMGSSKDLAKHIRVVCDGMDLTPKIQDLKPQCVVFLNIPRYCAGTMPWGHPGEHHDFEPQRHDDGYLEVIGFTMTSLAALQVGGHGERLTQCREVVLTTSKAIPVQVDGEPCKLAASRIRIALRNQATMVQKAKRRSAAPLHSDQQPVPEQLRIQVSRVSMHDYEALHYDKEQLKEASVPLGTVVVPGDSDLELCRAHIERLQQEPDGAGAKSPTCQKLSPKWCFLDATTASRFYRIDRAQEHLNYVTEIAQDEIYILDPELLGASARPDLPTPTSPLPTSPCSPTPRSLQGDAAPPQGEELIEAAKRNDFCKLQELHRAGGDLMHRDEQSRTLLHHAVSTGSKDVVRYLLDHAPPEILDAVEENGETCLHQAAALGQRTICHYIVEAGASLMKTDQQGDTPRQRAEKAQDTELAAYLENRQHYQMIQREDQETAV
Method in brief: as §1

T1 sequence (P23743 whole entry): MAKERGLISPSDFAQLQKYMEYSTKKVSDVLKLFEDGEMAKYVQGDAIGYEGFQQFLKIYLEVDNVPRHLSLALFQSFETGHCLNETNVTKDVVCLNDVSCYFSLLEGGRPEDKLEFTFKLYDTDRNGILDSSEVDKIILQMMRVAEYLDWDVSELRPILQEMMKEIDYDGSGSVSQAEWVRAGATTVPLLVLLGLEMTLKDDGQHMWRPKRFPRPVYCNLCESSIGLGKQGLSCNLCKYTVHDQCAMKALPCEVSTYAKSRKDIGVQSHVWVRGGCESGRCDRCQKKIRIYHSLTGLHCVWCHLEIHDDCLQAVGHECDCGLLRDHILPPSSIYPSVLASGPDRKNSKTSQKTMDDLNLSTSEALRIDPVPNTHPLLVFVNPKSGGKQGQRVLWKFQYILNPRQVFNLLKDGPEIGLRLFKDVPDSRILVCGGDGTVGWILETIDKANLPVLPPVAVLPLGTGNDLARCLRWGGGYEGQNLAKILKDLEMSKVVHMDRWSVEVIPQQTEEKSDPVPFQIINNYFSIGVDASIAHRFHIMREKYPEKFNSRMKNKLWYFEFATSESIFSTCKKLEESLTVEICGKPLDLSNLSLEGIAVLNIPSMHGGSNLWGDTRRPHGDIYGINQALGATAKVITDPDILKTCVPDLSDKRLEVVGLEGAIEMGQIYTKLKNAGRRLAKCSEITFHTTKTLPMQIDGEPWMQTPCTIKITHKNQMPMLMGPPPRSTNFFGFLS

IC50 (DGKα) [nM] | IC50 (DGKζ) [nM] | Structure (SMILES)
< 20 | < 20 | Cc1nc2c(N3C[C@@H](C)N(C(c4cc(F)c(Cl)cc4F)C4CC(F)(F)C4)C[C@@H]3C)nc3nncn3c2n1C[C@@H]1CCCO1 (stereo partly drawn) [Example 79, 4-((2S,5R)-4-((4-Chloro-2,5-difluorophenyl)(3,3-difluorocyclobutyl)methyl)-2,5-dimethylpiperazin-1-yl)-2-methyl-1-(((S)-tetrahydrofuran-2-yl)methyl)-1H-[1,2,4]triazolo[3,4-b]purine]
< 20 | < 20 | CC(C)[C@H](c1ccc2cc(C(F)(F)F)ccc2n1)N1C[C@H](C)N(c2nc3nncn3c3c2ncn3C[C@@H]2CCCO2)C[C@H]1C [Example 84, 4-((2S,5R)-2,5-dimethyl-4-((R)-2-methyl-1-(6-(trifluoromethyl)quinolin-2-yl)propyl)piperazin-1-yl)-1-(((S)-tetrahydrofuran-2-yl)methyl)-1H-[1,2,4]triazolo[3,4-b]purine]
< 20 | < 20 | CC[C@@H](c1ccc(Cl)cc1)N1C[C@H](C)N(c2nc3nncn3c3c2nc(C)n3C[C@@H]2CCCO2)C[C@H]1C [Example 85, 4-((2S,5R)-4-((S)-1-(4-Chlorophenyl)propyl)-2,5-dimethylpiperazin-1-yl)-2-methyl-1-(((S)-tetrahydrofuran-2-yl)methyl)-1H-[1,2,4]triazolo[3,4-b]purine]
< 20 | < 20 | CC[C@H](c1ccc(Cl)cc1)N1C[C@H](C)N(c2nc3nncn3c3c2nc(C)n3C[C@@H]2CCCO2)C[C@H]1C [Example 86, 4-((2S,5R)-4-((R)-1-(4-chlorophenyl)propyl)-2,5-dimethylpiperazin-1-yl)-2-methyl-1-(((S)-tetrahydrofuran-2-yl)methyl)-1H-[1,2,4]triazolo[3,4-b]purine]
20 to 200 | < 20 | CC(c1ccc(Cl)c(F)c1)N1C[C@H](C)N(c2nc3nncn3c3c2ncn3C[C@@H]2CCCO2)C[C@H]1C (stereo partly drawn) [Example 88, 4-((2S,5R)-4-(1-(4-Chloro-3-fluorophenyl)ethyl)-2,5-dimethylpiperazin-1-yl)-1-(((S)-tetrahydrofuran-2-yl)methyl)-1H-[1,2,4]triazolo[3,4-b]purine]
< 20 | < 20 | CC[C@H](c1ccc(C(F)(F)F)cc1)N1C[C@H](C)N(c2nc3nncn3c3c2nc(C)n3C[C@@H]2CCCO2)C[C@H]1C [Example 90, 4-((2S,5R)-2,5-dimethyl-4-((R)-1-(4-(trifluoromethyl)phenyl)propyl)piperazin-1-yl)-2-methyl-1-(((S)-tetrahydrofuran-2-yl)methyl)-1H-[1,2,4]triazolo[3,4-b]purine]

Second part, the compound before the results:

Structure (SMILES) | IC50 (DGKα) [nM] | IC50 (DGKζ) [nM]
Cc1nc2c(N3C[C@@H](C)N(C(c4ccc(Cl)c(F)c4F)C4CC(F)(F)C4)C[C@@H]3C)nc3nncn3c2n1C[C@@H]1CCCO1 (stereo partly drawn) [Example 80, 4-((2S,5R)-4-((4-Chloro-2,3-difluorophenyl)(3,3-difluorocyclobutyl)methyl)-2,5-dimethylpiperazin-1-yl)-2-methyl-1-(((S)-tetrahydrofuran-2-yl)methyl)-1H-[1,2,4]triazolo[3,4-b]purine] | < 20 | < 20
Cc1nc2c(N3C[C@H]4CC[C@@H](C3)N4C(c3ccc(C(F)(F)F)cc3)C3CC(F)(F)C3)nc3nncn3c2n1C[C@@H]1CCCO1 (stereo partly drawn) [Example 81, 4-((1R,5S)-8-((3,3-Difluorocyclobutyl)(4-(trifluoromethyl)phenyl)methyl)-3,8-diazabicyclo[3.2.1]octan-3-yl)-2-methyl-1-(((S)-tetrahydrofuran-2-yl)methyl)-1H-[1,2,4]triazolo[3,4-b]purine] | < 20 | < 20
Cc1nc2c(N3C[C@H]4CC[C@@H](C3)N4C(c3ccc(F)cc3)c3ccc(F)cc3)nc3nncn3c2n1C[C@@H]1CCCO1 [Example 82, 4-((1R,5S)-8-(Bis(4-fluorophenyl)methyl)-3,8-diazabicyclo[3.2.1]octan-3-yl)-2-methyl-1-(((S)-tetrahydrofuran-2-yl)methyl)-1H-[1,2,4]triazolo[3,4-b]purine] | < 20 | < 20
CC(C)[C@@H](c1ccc2cc(C(F)(F)F)ccc2n1)N1C[C@H](C)N(c2nc3nncn3c3c2ncn3C[C@@H]2CCCO2)C[C@H]1C [Example 83, 4-((2S,5R)-2,5-Dimethyl-4-((S)-2-methyl-1-(6-(trifluoromethyl)quinolin-2-yl)propyl)piperazin-1-yl)-1-(((S)-tetrahydrofuran-2-yl)methyl)-1H-[1,2,4]triazolo[3,4-b]purine] | 20 to 200 | < 20
CC[C@@H](c1ccc(C(F)(F)F)cc1)N1C[C@H](C)N(c2nc3nncn3c3c2nc(C)n3C[C@@H]2CCCO2)C[C@H]1C [Example 89, 4-((2S,5R)-2,5-Dimethyl-4-((S)-1-(4-(trifluoromethyl)phenyl)propyl)piperazin-1-yl)-2-methyl-1-(((S)-tetrahydrofuran-2-yl)methyl)-1H-[1,2,4]triazolo[3,4-b]purine] | < 20 | < 20
